According to ChEMBL document CHEMBL2331451, “Discovery of (1R,2R)-N-(4-(6-isopropylpyridin-2-yl)-3-(2-methyl-2H-indazol-5-yl)isothiazol-5-yl)-2-methylcyclopropanecarboxamide, a potent and orally efficacious mGlu5 receptor negative allosteric modulator” (Bioorg Med Chem Lett, 2013):
Activity calls are given as the source filed them. The calls are words filed in the database; no cut-off is given here.

Assays:
[1] = target: Metabotropic glutamate receptor 5 (Homo sapiens, UniProt P41594); experiment: Negative allosteric modulation of human recombinant mGlu5 receptor expressed in Syrian hamster AV12 cells assessed as receptor-mediated changes in intracellular calcium concentration by FLIPR assay; assay type: functional, cell-based
Metabotropic glutamate receptor 5 (Homo sapiens, UniProt P41594), sequence (P41594 whole entry): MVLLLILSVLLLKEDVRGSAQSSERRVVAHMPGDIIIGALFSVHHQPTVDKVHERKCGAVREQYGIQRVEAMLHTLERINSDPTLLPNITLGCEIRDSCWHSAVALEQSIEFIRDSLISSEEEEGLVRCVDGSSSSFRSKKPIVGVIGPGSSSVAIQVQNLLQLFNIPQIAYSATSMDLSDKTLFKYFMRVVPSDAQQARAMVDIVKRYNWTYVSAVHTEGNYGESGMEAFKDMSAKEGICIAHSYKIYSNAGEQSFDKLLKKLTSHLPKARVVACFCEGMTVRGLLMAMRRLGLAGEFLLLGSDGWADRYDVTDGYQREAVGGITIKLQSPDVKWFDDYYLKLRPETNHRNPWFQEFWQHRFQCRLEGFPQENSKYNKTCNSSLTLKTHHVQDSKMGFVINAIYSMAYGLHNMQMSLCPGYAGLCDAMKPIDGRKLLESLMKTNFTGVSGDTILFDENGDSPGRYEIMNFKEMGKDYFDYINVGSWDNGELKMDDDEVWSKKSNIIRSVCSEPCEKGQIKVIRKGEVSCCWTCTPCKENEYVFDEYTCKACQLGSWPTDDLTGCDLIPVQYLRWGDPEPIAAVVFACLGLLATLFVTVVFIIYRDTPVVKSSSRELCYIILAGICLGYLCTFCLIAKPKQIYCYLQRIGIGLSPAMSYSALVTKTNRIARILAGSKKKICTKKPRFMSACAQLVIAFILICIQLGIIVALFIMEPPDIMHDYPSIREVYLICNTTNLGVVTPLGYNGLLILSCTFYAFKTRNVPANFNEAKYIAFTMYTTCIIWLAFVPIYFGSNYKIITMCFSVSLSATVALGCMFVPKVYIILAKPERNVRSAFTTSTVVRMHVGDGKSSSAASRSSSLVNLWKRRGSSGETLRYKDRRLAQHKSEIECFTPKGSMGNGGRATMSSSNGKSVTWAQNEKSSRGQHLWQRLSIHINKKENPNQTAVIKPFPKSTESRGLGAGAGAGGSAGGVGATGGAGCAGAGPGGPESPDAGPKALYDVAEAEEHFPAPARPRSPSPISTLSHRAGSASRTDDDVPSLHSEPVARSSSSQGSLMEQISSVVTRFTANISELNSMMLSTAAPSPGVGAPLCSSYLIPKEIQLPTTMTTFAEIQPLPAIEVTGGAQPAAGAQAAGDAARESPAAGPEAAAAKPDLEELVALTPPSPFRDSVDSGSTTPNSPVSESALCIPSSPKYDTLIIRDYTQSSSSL

[2] = target: Metabotropic glutamate receptor 1 (Homo sapiens, UniProt Q13255); experiment: Negative allosteric modulation of human recombinant mGlu1 receptor expressed in Syrian hamster AV12 cells assessed as receptor-mediated changes in intracellular calcium concentration by FLIPR assay; assay type: functional, cell-based
Metabotropic glutamate receptor 1, sequence (Q13255 whole entry): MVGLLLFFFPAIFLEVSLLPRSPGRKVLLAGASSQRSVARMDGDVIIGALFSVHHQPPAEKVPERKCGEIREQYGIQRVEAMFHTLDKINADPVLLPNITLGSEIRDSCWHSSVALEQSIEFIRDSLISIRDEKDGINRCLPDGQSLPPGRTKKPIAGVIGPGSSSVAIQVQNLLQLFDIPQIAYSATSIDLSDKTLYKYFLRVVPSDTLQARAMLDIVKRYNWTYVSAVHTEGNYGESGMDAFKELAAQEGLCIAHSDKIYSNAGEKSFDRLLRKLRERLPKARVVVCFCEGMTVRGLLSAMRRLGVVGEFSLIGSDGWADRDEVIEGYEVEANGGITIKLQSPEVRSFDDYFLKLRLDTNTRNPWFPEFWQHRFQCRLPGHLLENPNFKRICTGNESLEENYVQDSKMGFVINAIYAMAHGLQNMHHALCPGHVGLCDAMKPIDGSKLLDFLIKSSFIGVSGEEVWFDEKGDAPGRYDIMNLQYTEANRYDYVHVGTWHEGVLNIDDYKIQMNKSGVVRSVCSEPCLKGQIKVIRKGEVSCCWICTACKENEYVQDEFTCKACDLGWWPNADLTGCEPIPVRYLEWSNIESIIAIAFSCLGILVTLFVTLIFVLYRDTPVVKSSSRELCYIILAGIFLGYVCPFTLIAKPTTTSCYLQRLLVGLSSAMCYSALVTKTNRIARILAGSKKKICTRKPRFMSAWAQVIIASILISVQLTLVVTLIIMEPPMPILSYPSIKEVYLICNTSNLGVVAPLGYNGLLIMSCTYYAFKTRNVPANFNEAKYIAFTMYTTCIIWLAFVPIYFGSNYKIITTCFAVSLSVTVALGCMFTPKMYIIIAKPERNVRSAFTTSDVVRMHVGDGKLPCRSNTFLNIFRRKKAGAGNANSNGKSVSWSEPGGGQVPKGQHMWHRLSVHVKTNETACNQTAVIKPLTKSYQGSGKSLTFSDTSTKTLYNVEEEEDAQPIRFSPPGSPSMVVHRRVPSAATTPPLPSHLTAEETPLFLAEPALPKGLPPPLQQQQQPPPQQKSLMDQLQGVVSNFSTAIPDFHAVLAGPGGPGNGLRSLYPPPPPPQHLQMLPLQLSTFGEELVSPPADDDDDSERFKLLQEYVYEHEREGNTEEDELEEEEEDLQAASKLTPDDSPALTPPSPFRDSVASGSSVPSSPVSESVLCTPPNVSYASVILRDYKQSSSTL

[3] = organism: Homo sapiens; experiment: Selectivity ratio of IC50 for human recombinant mGlu1 receptor to IC50 for human recombinant mGlu5 receptor
[4] = system: Rattus norvegicus; experiment: Ex vivo receptor occupancy of mGlu5 receptor in po dosed Harlan Sprague-Dawley rat brain; assay type: functional
[5] = system: Rattus norvegicus; experiment: Ex vivo receptor occupancy of mGlu5 receptor in Harlan Sprague-Dawley rat brain at 10 mg/kg, po after 0.5 hrs; assay type: functional
[6] = Drug uptake in Harlan Sprague-Dawley rat brain at 10 mg/kg, po after 6 hrs; assay type: ADME, organism-based; design: dose 10 mg/kg, route oral; details: read-out: Drug uptake
[7] = Elimination half life in Harlan Sprague-Dawley rat at 1 mg/kg, iv; assay type: ADME, organism-based; design: dose 1 mg/kg, route intravenous; details: in vivo, read-out: beta t1/2 (converted)
[8] = system: Rattus norvegicus; experiment: Analgesic activity in po dosed fasted Harlan Sprague-Dawley rat assessed as inhibition of late phase of formalin- induced paw-licking pain behavior; assay type: functional
[9] = Cmax in Harlan Sprague-Dawley rat at 1.5 mg/kg, po; assay type: ADME, organism-based; design: dose 1.5 mg/kg, route oral; details: in vivo
[10] = Volume of distribution in Harlan Sprague-Dawley rat at 1.5 mg/kg, po and 1 mg/kg, iv; assay type: ADME, organism-based; details: in vivo
[11] = Drug uptake in Harlan Sprague-Dawley rat brain at 10 mg/kg, po after 0.5 hrs; assay type: ADME, organism-based; design: dose 10 mg/kg, route oral; details: read-out: Drug uptake
[12] = Tmax in Harlan Sprague-Dawley rat at 1.5 mg/kg, po; assay type: ADME, organism-based; design: dose 1.5 mg/kg, route oral; details: in vivo
[13] = system: Rattus norvegicus; experiment: Ex vivo receptor occupancy of mGlu5 receptor in Harlan Sprague-Dawley rat brain at 10 mg/kg, po after 1 hr; assay type: functional
[14] = target: Metabotropic glutamate receptor 5 (Rattus norvegicus, UniProt P31424); experiment: Negative allosteric modulation of rat mGlu5 receptor
Metabotropic glutamate receptor 5 (Rattus norvegicus, UniProt P31424), sequence (P31424 whole entry): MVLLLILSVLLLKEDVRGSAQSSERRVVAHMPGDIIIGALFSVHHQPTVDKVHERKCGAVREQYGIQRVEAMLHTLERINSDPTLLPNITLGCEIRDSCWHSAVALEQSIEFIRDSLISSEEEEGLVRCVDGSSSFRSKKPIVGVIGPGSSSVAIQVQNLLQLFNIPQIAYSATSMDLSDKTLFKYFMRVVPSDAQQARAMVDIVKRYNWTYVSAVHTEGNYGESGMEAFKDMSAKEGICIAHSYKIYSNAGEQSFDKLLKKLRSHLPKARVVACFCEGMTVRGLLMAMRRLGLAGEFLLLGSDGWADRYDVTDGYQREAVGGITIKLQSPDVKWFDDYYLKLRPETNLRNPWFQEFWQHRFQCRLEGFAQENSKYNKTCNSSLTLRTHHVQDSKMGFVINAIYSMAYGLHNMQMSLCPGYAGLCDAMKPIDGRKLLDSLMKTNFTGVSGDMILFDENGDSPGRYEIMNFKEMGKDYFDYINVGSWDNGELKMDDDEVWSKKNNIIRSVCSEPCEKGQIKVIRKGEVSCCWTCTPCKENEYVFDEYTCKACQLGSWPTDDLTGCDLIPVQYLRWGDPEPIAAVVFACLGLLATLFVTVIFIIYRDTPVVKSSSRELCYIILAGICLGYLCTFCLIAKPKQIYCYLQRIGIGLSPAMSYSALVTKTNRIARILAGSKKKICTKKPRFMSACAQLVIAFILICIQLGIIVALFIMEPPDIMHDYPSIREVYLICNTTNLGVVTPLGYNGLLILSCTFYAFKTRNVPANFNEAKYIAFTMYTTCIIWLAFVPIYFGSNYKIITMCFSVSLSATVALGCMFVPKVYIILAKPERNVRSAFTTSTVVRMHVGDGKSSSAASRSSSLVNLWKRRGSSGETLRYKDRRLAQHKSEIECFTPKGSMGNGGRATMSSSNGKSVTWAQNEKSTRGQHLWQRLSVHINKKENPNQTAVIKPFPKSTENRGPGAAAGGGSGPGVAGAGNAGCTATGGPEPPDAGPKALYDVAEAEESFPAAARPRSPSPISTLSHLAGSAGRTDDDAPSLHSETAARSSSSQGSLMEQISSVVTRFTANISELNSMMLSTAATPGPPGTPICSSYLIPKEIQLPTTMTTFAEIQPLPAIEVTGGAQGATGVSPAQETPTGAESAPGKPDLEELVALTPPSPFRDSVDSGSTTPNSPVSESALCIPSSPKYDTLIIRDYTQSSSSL

[15] = system: Rattus norvegicus; experiment: Ex vivo receptor occupancy of mGlu5 receptor in Harlan Sprague-Dawley rat brain at 10 mg/kg, po after 24 hrs; assay type: functional
[16] = target: T1, 5-hydroxytryptamine receptor 2B (Homo sapiens, UniProt P41595); experiment: Binding affinity to 5HT2B receptor (unknown origin)
T1 sequence (P41595 whole entry): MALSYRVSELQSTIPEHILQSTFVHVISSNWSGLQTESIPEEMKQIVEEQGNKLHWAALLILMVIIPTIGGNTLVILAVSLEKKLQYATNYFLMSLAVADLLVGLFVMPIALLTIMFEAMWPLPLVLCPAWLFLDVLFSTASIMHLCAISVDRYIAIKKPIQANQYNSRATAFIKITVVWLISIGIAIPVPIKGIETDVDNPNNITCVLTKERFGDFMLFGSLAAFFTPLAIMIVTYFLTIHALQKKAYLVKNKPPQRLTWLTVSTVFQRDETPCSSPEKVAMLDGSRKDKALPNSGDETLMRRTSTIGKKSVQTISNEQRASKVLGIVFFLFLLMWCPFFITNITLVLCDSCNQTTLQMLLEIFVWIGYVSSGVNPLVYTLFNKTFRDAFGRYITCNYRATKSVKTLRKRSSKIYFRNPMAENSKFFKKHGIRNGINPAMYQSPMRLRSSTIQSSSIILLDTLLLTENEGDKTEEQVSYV

[17] = system: Rattus norvegicus; experiment: Ex vivo receptor occupancy of mGlu5 receptor in Harlan Sprague-Dawley rat brain at 10 mg/kg, po after 6 hrs; assay type: functional
[18] = system: Rattus norvegicus; experiment: Ex vivo receptor occupancy of mGlu1 receptor in Harlan Sprague-Dawley rat brain up to 10 mg/kg, po; assay type: functional, organism-based; design: dose 10 mg/kg
[19] = Bioavailability in Harlan Sprague-Dawley rat at 1.5 mg/kg, po and 1 mg/kg, iv; assay type: ADME, organism-based; details: in vivo
[20] = Drug uptake in Harlan Sprague-Dawley rat brain at 10 mg/kg, po after 2 hrs; assay type: ADME, organism-based; design: dose 10 mg/kg, route oral; details: read-out: Drug uptake
[21] = system: Rattus norvegicus; experiment: Ex vivo receptor occupancy of mGlu5 receptor in Harlan Sprague-Dawley rat brain at 10 mg/kg, po after 4 hrs; assay type: functional
[22] = Clearance in Harlan Sprague-Dawley rat at 1.5 mg/kg, po and 1 mg/kg, iv; assay type: ADME, organism-based; details: in vivo
[23] = target: T1, 5-hydroxytryptamine receptor 2B; details: 1 uM
Description: Inhibition of 5HT2B receptor (unknown origin) at 1 uM

[24] = Drug uptake in Harlan Sprague-Dawley rat brain at 10 mg/kg, po after 24 hrs; assay type: ADME, organism-based; design: dose 10 mg/kg, route oral; details: read-out: Drug uptake
[25] = Elimination half life in Harlan Sprague-Dawley rat at 1.5 mg/kg, po; assay type: ADME, organism-based; design: dose 1.5 mg/kg, route oral; details: in vivo, read-out: beta t1/2 (converted)
[26] = system: Rattus norvegicus; experiment: Ex vivo receptor occupancy of mGlu5 receptor in Harlan Sprague-Dawley rat brain at 10 mg/kg, po after 2 hrs; assay type: functional
[27] = AUC (0 to 24 hrs) in Harlan Sprague-Dawley rat at 1.5 mg/kg, po; assay type: ADME, organism-based; design: time < 24 hr, dose 1.5 mg/kg, route oral; details: plasma
[28] = Drug uptake in Harlan Sprague-Dawley rat brain at 10 mg/kg, po after 1 hr; assay type: ADME, organism-based; design: dose 10 mg/kg, route oral; details: read-out: Drug uptake
[29] = organism: Rattus norvegicus; experiment: Neurotoxicity in Harlan Sprague-Dawley rat assessed as minimal motor impairment up to 4 hrs by rotorod test; assay type: toxicity, organism-based; details: in vivo
[30] = Drug uptake in Harlan Sprague-Dawley rat brain at 10 mg/kg, po after 4 hrs; assay type: ADME, organism-based; design: dose 10 mg/kg, route oral; details: read-out: Drug uptake

SMILES: CCCc1cccc(-c2c(-c3ccc4nn(C)cc4c3)nsc2NC(=O)[C@@H]2C[C@H]2C)n1
- IC50 [1]: 20 nM
- IC50 [2]: 409 nM
- Ratio IC50 [3]: 20

SMILES: COc1ccc(-c2nsc(NC(=O)[C@@H]3C[C@H]3C)c2C)cc1
- Ratio IC50 [3]: > 20

SMILES: C[C@@H]1C[C@H]1C(=O)Nc1snc(-c2ccc3nn(C)cc3c2)c1-c1cccc(C(F)F)n1
- IC50 [1]: 81 nM
- IC50 [2]: 1020 nM
- Ratio IC50 [3]: 13

SMILES: C[C@@H]1C[C@H]1C(=O)Nc1snc(-c2ccc3nn(C)cc3c2)c1-c1cccc(N(C)C)n1
- IC50 [1]: 20 nM
- IC50 [2]: 9540 nM
- Ratio IC50 [3]: 477

SMILES: C[C@@H]1C[C@H]1C(=O)Nc1snc(-c2ccc3n[nH]cc3c2)c1-c1cccc(N(C)C)n1
- IC50 [1]: 47 nM
- IC50 [2]: > 12500 nM
- Ratio IC50 [3]: > 266

SMILES: CCc1cccc(-c2c(-c3ccc4n[nH]cc4c3)nsc2NC(=O)[C@@H]2C[C@H]2C)n1
- IC50 [1]: 36 nM
- IC50 [2]: 3110 nM
- Ratio IC50 [3]: 86

SMILES: CNc1cccc(-c2c(-c3ccc4nn(C)cc4c3)nsc2NC(=O)[C@@H]2C[C@H]2C)n1
- IC50 [1]: 62 nM
- IC50 [2]: 1590 nM
- Ratio IC50 [3]: 26

SMILES: CC(C)c1cccc(-c2c(-c3ccc4nn(C)cc4c3)nsc2NC(=O)[C@@H]2C[C@H]2C)n1.Cl
- Activity [4]: Dose-dependent effect
- ED50 [4]: 2.1 mg/kg
- IC50 [1]: 19 nM
- Activity [5]: 37.8%
- concentration at 6 h [6]: 2980 nM
- half-life [7]: 4.9 h
- ED50 [8]: 25.5 mg/kg
- inhibition [8]: Dose-dependent effect
- Cmax [9]: 255 ng/mL
- Vd [10]: 2.7 L/kg
- concentration at 0.5 h [11]: 1240 nM
- Tmax [12]: 2 h
- Activity [13]: 57.8%
- IC50 [14]: 167 nM
- Activity [15]: 58.9%
- Ki [16]: 3160 nM
- Activity [17]: 62.5%
- Activity [18]: inactive
- bioavailability [19]: 56.5%
- concentration at 2 h [20]: 2850 nM
- Activity [21]: 67.7%
- clearance [22]: 8.4 mL/min/kg
- inhibition [23]: 56%
- IC50 [2]: 644 nM
- concentration at 24 h [24]: 2340 nM
- half-life [25]: 4.6 h
- Activity [26]: 74.3%
- AUC(0-t) at 24 h [27]: 1570 ng·h/mL
- Ratio IC50 [3]: 34
- concentration at 1 h [28]: 2230 nM
- Activity [29]: Non-toxic
- concentration at 4 h [30]: 2590 nM

SMILES: C[C@@H]1C[C@H]1C(=O)Nc1snc(-c2ccc3nn(C)cc3c2)c1-c1cccc(C2CCCC2)n1
- IC50 [1]: 27 nM
- IC50 [2]: 891 nM
- Ratio IC50 [3]: 33

SMILES: C[C@@H]1C[C@H]1C(=O)Nc1snc(-c2ccc3nn(C)cc3c2)c1-c1cccc(C2CC2)n1
- IC50 [1]: 30 nM
- IC50 [2]: 735 nM
- Ratio IC50 [3]: 25

SMILES: CC(C)c1cccc(-c2c(-c3ccc4n[nH]cc4c3)nsc2NC(=O)[C@@H]2C[C@H]2C)n1
- IC50 [1]: 45 nM
- IC50 [2]: 4570 nM
- Ratio IC50 [3]: 102

SMILES: Cc1cccc(-c2c(-c3ccc4nn(C)cc4c3)nsc2NC(=O)[C@@H]2C[C@H]2C)n1
- IC50 [1]: 45 nM
- IC50 [2]: 2210 nM
- Ratio IC50 [3]: 49

SMILES: COc1cccc(-c2c(-c3ccc4nn(C)cc4c3)nsc2NC(=O)[C@@H]2C[C@H]2C)n1
- IC50 [1]: 36 nM
- IC50 [2]: 190 nM
- Ratio IC50 [3]: 5

SMILES: CC[C@@H]1C[C@H]1C(=O)Nc1snc(-c2ccc3nn(C)cc3c2)c1-c1cccc(N(C)C)n1
- IC50 [1]: 35 nM
- IC50 [2]: > 12500 nM
- Ratio IC50 [3]: > 357

SMILES: CC(C)c1cccc(-c2c(-c3ccc4nn(C)cc4c3)nsc2NC(=O)C2CC2)n1
- IC50 [1]: 39 nM
- IC50 [2]: 397 nM
- Ratio IC50 [3]: 10

SMILES: C[C@@H]1C[C@H]1C(=O)Nc1snc(-c2ccc3nn(C)cc3c2)c1-c1cccc(CF)n1
- IC50 [1]: 50 nM
- IC50 [2]: 1300 nM
- Ratio IC50 [3]: 26

SMILES: C[C@@H]1C[C@H]1C(=O)Nc1snc(-c2ccc3nn(C)cc3c2)c1-c1ccccn1
- IC50 [1]: 29 nM
- IC50 [2]: 238 nM
- Ratio IC50 [3]: 8

SMILES: C[C@@H]1C[C@H]1C(=O)Nc1snc(-c2ccc3nn(C)cc3c2)c1-c1cccc(C2CCC2)n1
- IC50 [1]: 54 nM
- IC50 [2]: 687 nM
- Ratio IC50 [3]: 13

SMILES: CCc1cccc(-c2c(-c3ccc4nn(C)cc4c3)nsc2NC(=O)[C@@H]2C[C@H]2C)n1
- IC50 [1]: 10 nM
- IC50 [2]: 279 nM
- Ratio IC50 [3]: 28
